Laboratory results: ChEMBL document CHEMBL4184182, “Studies on interactions of carbazole derivatives with DNA, cell image, and cytotoxicity” (Bioorg Med Chem, 2018)
Activity calls are given as the source filed them. The calls are words filed in the database; no cut-off is given here.

Experiments:
Calf thymus DNA [1] = assay: Binding affinity to calf thymus DNA assessed as hyperchromicity at 10 uM after 5 mins by UV-Visible absorbance titration method; format: nucleic-acid assay; details: Bos taurus
dsDNA [2] = assay: Binding affinity to 26-mer duplex DNA (unknown origin) assessed as red shift at 10 uM after 5 mins by UV-Visible absorbance titration method; format: nucleic-acid assay
Calf thymus DNA [3] = assay: Binding affinity to calf thymus DNA after 5 mins by UV-Visible absorbance titration method; format: nucleic-acid assay; details: Bos taurus
dsDNA [4] = assay: Binding affinity to 26-mer duplex DNA (unknown origin) after 5 mins by UV-Visible absorbance titration method; format: nucleic-acid assay
Quadruplex DNA [5] = assay: Binding affinity to c-Kit G-quadruplex DNA (unknown origin) after 5 mins by UV-Visible absorbance titration method; format: nucleic-acid assay
Quadruplex DNA [6] = assay: Binding affinity to Bcl2 G-quadruplex DNA (unknown origin) after 5 mins by UV-Visible absorbance titration method; format: nucleic-acid assay
Quadruplex DNA [7] = assay: Binding affinity to c-Myc G-quadruplex DNA (unknown origin) after 5 mins by UV-Visible absorbance titration method; format: nucleic-acid assay
Quadruplex DNA [8] = assay: Binding affinity to human telomeric G-quadruplex DNA after 5 mins in presence of potassium ion by UV-Visible absorbance titration method; format: nucleic-acid assay
Quadruplex DNA [9] = assay: Binding affinity to human telomeric G-quadruplex DNA after 5 mins in presence of sodium ion by UV-Visible absorbance titration method; format: nucleic-acid assay
dsDNA [10] = assay: Binding affinity to 26-mer duplex DNA (unknown origin) assessed as emission maximum at 5 uM after 5 mins by fluorescence titration method (reference value: 584 nanometer); format: nucleic-acid assay
Quadruplex DNA [11] = assay: Binding affinity to c-Myc G-quadruplex DNA (unknown origin) assessed as compound fluorescence life time at 5 uM after 5 mins by fluorescence titration method (reference value: 0.192 nanoseconds); format: nucleic-acid assay
Quadruplex DNA [12] = assay: Binding affinity to human telomeric G-quadruplex DNA assessed as compound fluorescence life time at 5 uM after 5 mins in presence of potassium ion by fluorescence titration method (reference value: 0.192 nanoseconds); format: nucleic-acid assay
[13] = Selectivity ratio of Kb for c-Kit G-quadruplex DNA (unknown origin) to Kb for calf thymus DNA
[14] = Selectivity ratio of Kb for Bcl2 G-quadruplex DNA (unknown origin) to Kb for calf thymus DNA
[15] = Selectivity ratio of Kb for c-Myc G-quadruplex DNA (unknown origin) to Kb for calf thymus DNA
[16] = Selectivity ratio of Kb for human telomeric G-quadruplex DNA in presence of potassium ion to Kb for calf thymus DNA
[17] = Selectivity ratio of Kb for human telomeric G-quadruplex DNA in presence of sodium ion to Kb for calf thymus DNA
Quadruplex DNA [18] = assay: Binding affinity to Bcl2 G-quadruplex DNA (unknown origin) assessed as stoichiometric ratio of compound to G-quadruplex DNA after 5 mins by Job plot analysis; format: nucleic-acid assay
Quadruplex DNA [19] = assay: Binding affinity to c-Kit G-quadruplex DNA (unknown origin) assessed as stoichiometric ratio of compound to G-quadruplex DNA after 5 mins by Job plot analysis; format: nucleic-acid assay
Quadruplex DNA [20] = assay: Binding affinity to c-Myc G-quadruplex DNA (unknown origin) assessed as stoichiometric ratio of compound to G-quadruplex DNA after 5 mins by Job plot analysis; format: nucleic-acid assay
Quadruplex DNA [21] = assay: Binding affinity to human telomeric G-quadruplex DNA assessed as stoichiometric ratio of compound to G-quadruplex DNA after 5 mins in presence of potassium ion by Job plot analysis; format: nucleic-acid assay
Quadruplex DNA [22] = assay: Binding affinity to human telomeric G-quadruplex DNA assessed as stoichiometric ratio of compound to G-quadruplex DNA after 5 mins in presence of sodium ion by Job plot analysis; format: nucleic-acid assay
Quadruplex DNA [23] = assay: Displacement of thiazole orange from Bcl2 G-quadruplex DNA (unknown origin) after 5 mins by fluorescence spectral analysis; format: nucleic-acid assay
Quadruplex DNA [24] = assay: Displacement of thiazole orange from c-Kit G-quadruplex DNA (unknown origin) after 5 mins by fluorescence spectral analysis; format: nucleic-acid assay
Quadruplex DNA [25] = assay: Displacement of thiazole orange from c-Myc G-quadruplex DNA (unknown origin) after 5 mins by fluorescence spectral analysis; format: nucleic-acid assay
Quadruplex DNA [26] = assay: Displacement of thiazole orange from human telomeric G-quadruplex DNA after 5 mins in presence of potassium ion by fluorescence spectral analysis; format: nucleic-acid assay
Quadruplex DNA [27] = assay: Displacement of thiazole orange from human telomeric G-quadruplex DNA after 5 mins in presence of sodium ion by fluorescence spectral analysis; format: nucleic-acid assay
dsDNA [28] = assay: Displacement of thiazole orange from 26-mer duplex DNA (unknown origin) after 5 mins by fluorescence spectral analysis; format: nucleic-acid assay
[29] = Selectivity ratio of DC50 for 26-mer duplex DNA (unknown origin) to DC50 for Bcl2 G-quadruplex DNA (unknown origin)
[30] = Selectivity ratio of DC50 for 26-mer duplex DNA (unknown origin) to DC50 for c-Kit G-quadruplex DNA (unknown origin)
[31] = Selectivity ratio of DC50 for 26-mer duplex DNA (unknown origin) to DC50 for c-Myc G-quadruplex DNA (unknown origin)
[32] = Selectivity ratio of DC50 for 26-mer duplex DNA (unknown origin) to DC50 for human telomeric G-quadruplex DNA in presence of potassium ion
Quadruplex DNA [33] = assay: Induction of conformational changes in Bcl2 G-quadruplex DNA (unknown origin) at 15 uM after 5 mins by CD spectral analysis; format: nucleic-acid assay
Quadruplex DNA [34] = assay: Induction of conformational changes in c-Kit G-quadruplex DNA (unknown origin) at 15 uM after 5 mins by CD spectral analysis; format: nucleic-acid assay
Quadruplex DNA [35] = assay: Induction of conformational changes in c-Myc G-quadruplex DNA (unknown origin) at 15 uM after 5 mins by CD spectral analysis; format: nucleic-acid assay
Quadruplex DNA [36] = assay: Induction of conformational changes in human telomeric G-quadruplex DNA at 15 uM after 5 mins in presence of potassium ion by CD spectral analysis; format: nucleic-acid assay
Quadruplex DNA [37] = assay: Induction of conformational changes in human telomeric G-quadruplex DNA at 15 uM after 5 mins in presence of sodium ion by CD spectral analysis; format: nucleic-acid assay
HepG2 = assay: Antiproliferative activity against human HepG2 cells after 72 hrs by MTT assay; format: functional, cell-based; details: for IC50: HepG2, 72 h
Quadruplex DNA [38] = assay: Binding affinity to Bcl2 G-quadruplex DNA (unknown origin) assessed as hyperchromicity at 15 uM after 5 mins by UV-Visible absorbance titration method; format: nucleic-acid assay
Quadruplex DNA [39] = assay: Binding affinity to human telomeric G-quadruplex DNA assessed as hyperchromicity at 15 uM after 5 mins in presence of sodium ion by UV-Visible absorbance titration method; format: nucleic-acid assay
Quadruplex DNA [40] = assay: Binding affinity to Bcl2 G-quadruplex DNA (unknown origin) assessed as absorption maximum at 5 uM after 5 mins by fluorescence titration method (reference value: 405 nanometer); format: nucleic-acid assay
Quadruplex DNA [41] = assay: Binding affinity to human telomeric G-quadruplex DNA assessed as absorption maximum at 5 uM after 5 mins in presence of sodium ion by fluorescence titration method (reference value: 405 nanometer); format: nucleic-acid assay
Quadruplex DNA [42] = assay: Binding affinity to Bcl2 G-quadruplex DNA (unknown origin) assessed as emission maximum at 5 uM after 5 mins by fluorescence titration method (reference value: 559 nanometer); format: nucleic-acid assay
dsDNA [43] = assay: Binding affinity to 26-mer duplex DNA (unknown origin) assessed as compound fluorescence life time at 5 uM after 5 mins by fluorescence titration method (reference value: 3.626 nanoseconds); format: nucleic-acid assay

Kb (Calf thymus DNA [3]) [×10⁴ /M] | Kb (dsDNA [4]) [×10⁴ /M] | Kb (Quadruplex DNA [5]) [×10⁴ /M] | Kb (Quadruplex DNA [6]) [×10⁴ /M] | Kb (Quadruplex DNA [7]) [×10⁴ /M] | Kb (Quadruplex DNA [8]) [×10⁴ /M] | Kb (Quadruplex DNA [9]) [×10⁴ /M] | Selectivity ratio [13] | Selectivity ratio [14] | Selectivity ratio [15] | Selectivity ratio [16] | Selectivity ratio [17] | Ratio (Quadruplex DNA [18]) | Ratio (Quadruplex DNA [19]) | Ratio (Quadruplex DNA [20]) | Ratio (Quadruplex DNA [21]) | Ratio (Quadruplex DNA [22]) | DC50 (Quadruplex DNA [23]) [µM] | DC50 (Quadruplex DNA [24]) [µM] | DC50 (Quadruplex DNA [25]) [µM] | Compound | further results
1.32 | 3.97 | 23.9 | 32 | 54.9 | 18.3 | 7.86 | 18.1 | 24.2 | 41.6 | 13.9 | 6 | 1.5 | 1.9 | 1.9 | 2.2 | 1.9 | 0.84 | 2.15 | 0.93 | CCn1c2ccccc2c2cc(/C=C/c3sc4ccccc4[n+]3CC)ccc21.[I-] | Activity (Calf thymus DNA [1]): 40.1%; Activity (dsDNA [2]): 17 nm; Activity (dsDNA [10]): 568 nm; Time (Quadruplex DNA [11]): 1.68 nanoseconds; Time (Quadruplex DNA [12]): 2.09 nanoseconds; DC50 (Quadruplex DNA [26]): 1.81 µM; DC50 (Quadruplex DNA [27]): 6.08 µM; DC50 (dsDNA [28]): 4.34 µM; Selectivity ratio [29]: 5.17; Selectivity ratio [30]: 2.02; Selectivity ratio [31]: 4.67; Selectivity ratio [32]: 2.4; Activity (Quadruplex DNA [33]): inactive; Activity (Quadruplex DNA [34]): inactive; Activity (Quadruplex DNA [35]): inactive; Activity (Quadruplex DNA [36]): inactive; Activity (Quadruplex DNA [37]): inactive; Activity (HepG2): Dose-dependent effect; IC50 (HepG2): 2.7 µM
1 | 2.28 | 10.7 | 9.99 | 19.2 | 11.9 | 6.95 | 6.7 | 6.2 | 12 | 7.4 | 4.3 | 1.6 | 2 | 2.1 | 2.2 | 1.9 | 9.25 | 6.03 | 5.15 | CCn1c2ccccc2c2cc(/C=C(\C#N)c3ccc[n+](C)c3)ccc21.[I-] | Activity (Quadruplex DNA [38]): 42.7%; Activity (Quadruplex DNA [39]): 37.9%; Activity (Quadruplex DNA [40]): 434 nm; Activity (Quadruplex DNA [41]): 422 nm; Activity (Quadruplex DNA [42]): 541 nm; Time (dsDNA [43]): 2.43 nanoseconds; DC50 (Quadruplex DNA [26]): 6.64 µM; DC50 (Quadruplex DNA [27]): 9.85 µM; DC50 (dsDNA [28]): 13.1 µM; Selectivity ratio [29]: 1.42; Selectivity ratio [30]: 2.17; Selectivity ratio [31]: 2.55; Selectivity ratio [32]: 1.98; Activity (Quadruplex DNA [33]): inactive; Activity (Quadruplex DNA [34]): inactive; Activity (Quadruplex DNA [35]): inactive; Activity (Quadruplex DNA [36]): inactive; Activity (Quadruplex DNA [37]): inactive; Activity (HepG2): Dose-dependent effect; IC50 (HepG2): 9.8 µM
